Tests used:
[1] = tested on: BT-549; experiment: normalised response (% of control), CellTiter-Glo; higher = more viable cells (100 = DMSO, 0 = benzethonium chloride kill control); conditions: incubation time: 72 h
Outline: (§1)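 Compound was dispensed into 384-well plates at 5 concentrations in 10-fold steps spanning a 10,000-fold range specific to that compound. Breast cancer cell lines were added as 20 µl suspension and left for 72 h before CellTox Green fluorescence (485/520 nm) and then CellTiter-Glo luminescence, read after 10 min at room temperature. Each reported value is the normalised signal at one concentration, with 0.1 % DMSO set at 100 and a positive kill control at 0 on each plate.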

[2] = tested on: MDA-MB-231; experiment: as above; conditions: incubation time: 72 h
Outline: as §1

[3] = tested on: MCF-10A; experiment: as above; conditions: incubation time: 72 h
Outline: as §1

[4] = tested on: MFM-223; experiment: as above; conditions: incubation time: 72 h
Outline: as §1

[5] = tested on: CAL-148; experiment: as above; conditions: incubation time: 72 h
Outline: as §1

[6] = tested on: MDA-MB-453; experiment: as above; conditions: incubation time: 72 h
Outline: as §1

[7] = tested on: BT-474; experiment: as above; conditions: incubation time: 72 h
Outline: as §1

[8] = tested on: SK-BR-3; experiment: as above; conditions: incubation time: 72 h
Outline: as §1

[9] = tested on: DU-4475; experiment: as above; conditions: incubation time: 72 h
Outline: as §1

[10] = tested on: MDA-MB-468; experiment: as above; conditions: incubation time: 72 h
Outline: as §1

[11] = tested on: MDA-MB-436; experiment: as above; conditions: incubation time: 72 h
Outline: as §1

[12] = tested on: HCC1937; experiment: as above; conditions: incubation time: 72 h
Outline: as §1

[13] = tested on: CAL-120; experiment: as above; conditions: incubation time: 72 h
Outline: as §1

[14] = tested on: CAL-85-1; conditions: 72 h
Outline: (§2)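 Plates of 384 wells holding compound in 5 µl medium received breast cancer cell lines in 20 µl suspension and were incubated 72 h. CellTiter-Blue (2.5 µl, 2 h, 37 °C) was used for viability, read at 560/590 nm, and every plate was normalised to vehicle and a positive kill control and assessed by Z'-factor. The EC50 derives from a percent-inhibition dose-response curve fit censored at the highest concentration, leaving out rows whose drug sensitivity score was zero.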

[15] = tested on: CAL-148; conditions: 72 h
Outline: as §2

[16] = tested on: CAL-51; conditions: 72 h
Outline: as §2

[17] = tested on: MDA-MB-453; conditions: 72 h
Outline: as §2

[18] = tested on: DU-4475; conditions: 72 h
Outline: as §2

EC50, CellTiter-Blue viability [17] [nM] | Compound | normalised response [1] [%] | normalised response [2] [%] | normalised response [3] [%] | normalised response [4] [%] | normalised response [5] [%] | normalised response [6] [%] | normalised response [7] [%] | normalised response [8] [%] | normalised response [9] [%] | normalised response [10] [%] | normalised response [11] [%] | normalised response [12] [%] | normalised response [13] [%] | EC50, CellTiter-Blue viability [14] [nM] | EC50, CellTiter-Blue viability [15] [nM] | EC50, CellTiter-Blue viability [16] [nM] | EC50, CellTiter-Blue viability [18] [nM]
– | CC(=O)[C@]1(O)Cc2c(O)c3c(c(O)c2[C@@H](O[C@H]2C[C@H](N)[C@H](O)[C@H](C)O2)C1)C(=O)c1ccccc1C3=O [Idarubicin] (1000 nM) | 6.26 | 24.7 | 27.3 | 9.33 | 0.6 | 31.2 | 16.6 | 7.62 | 0.36 | 5.57 | 20.6 | 30.1 | 30 | – | – | – | –
– | C/C(=C\c1csc(C)n1)[C@@H]1C[C@@H]2O[C@]2(C)CCC[C@H](C)[C@H](O)[C@@H](C)C(=O)C(C)(C)[C@@H](O)CC(=O)N1 [Ixabepilone] (1000 nM) | 20.8 | 73.8 | 95.6 | 101 | 107 | 106 | 41.9 | 104 | 100 | 23 | 103 | 104 | 98 | – | – | – | –
– | C=CCn1c(=O)c2cnc(Nc3ccc(N4CCN(C)CC4)cc3)nc2n1-c1cccc(C(C)(C)O)n1 [MK1775] (10000 nM) | 6.99 | 23.7 | 19 | 36.1 | 9.04 | 44 | 29.4 | 8.92 | 11.9 | 6.6 | 15.8 | 28.3 | 22.8 | – | – | – | –
– | CN(Cc1cnc2nc(N)nc(N)c2n1)c1ccc(C(=O)N[C@@H](CCC(=O)O)C(=O)O)cc1 [Methotrexate] | – | – | – | – | – | – | – | – | – | – | – | – | – | 71.7 | 46.5 | 84.8 | –
7900 | COc1c2occc2cc2ccc(=O)oc12 [Methoxsalen] | – | – | – | – | – | – | – | – | – | – | – | – | – | 9050 | 6360 | – | 6860
92.3 | CO[C@@H]1[C@H](N(C)C(=O)c2ccccc2)C[C@H]2O[C@]1(C)n1c3ccccc3c3c4c(c5c6ccccc6n2c5c31)C(=O)NC4 [Midostaurin] | – | – | – | – | – | – | – | – | – | – | – | – | – | 314 | – | 182 | 451
– | CO[C@@H]1[C@H](N(C)C(=O)c2ccccc2)C[C@H]2O[C@]1(C)n1c3ccccc3c3c4c(c5c6ccccc6n2c5c31)C(=O)NC4 [Midostaurin] (10000 nM) | 4.02 | 40.7 | 24.9 | 66.5 | 88.1 | 110 | 41.7 | 45.2 | 34.1 | 29.4 | 68.8 | 50.1 | 46.2 | – | – | – | –
– | CO[C@@]12[C@H](COC(N)=O)C3=C(C(=O)C(C)=C(N)C3=O)N1C[C@@H]1N[C@@H]12 [Mitomycin C] (10000 nM) | 15 | 82.5 | 73 | 86.5 | 51 | 85.8 | 69.5 | 58.4 | 69 | 22.5 | 41.7 | 73.3 | 88.1 | – | – | – | –
– | CCNC(=O)c1noc(-c2cc(C(C)C)c(O)cc2O)c1-c1ccc(CN2CCOCC2)cc1 [NVP-AUY922] (1000 nM) | 39.8 | 24.9 | 16.7 | 36.3 | 29.3 | 26.3 | 25.6 | 39.4 | -0.14 | 22.6 | 50.9 | 28.3 | 47.9 | – | – | – | –
– | CC1(C)CCC(c2ccc(Cl)cc2)=C(CN2CCN(c3ccc(C(=O)NS(=O)(=O)c4ccc(N[C@H](CCN5CCOCC5)CSc5ccccc5)c(S(=O)(=O)C(F)(F)F)c4)cc3)CC2)C1 [Navitoclax] | – | – | – | – | – | – | – | – | – | – | – | – | – | – | 129 | – | 286
– | CC1(C)CCC(c2ccc(Cl)cc2)=C(CN2CCN(c3ccc(C(=O)NS(=O)(=O)c4ccc(N[C@H](CCN5CCOCC5)CSc5ccccc5)c(S(=O)(=O)C(F)(F)F)c4)cc3)CC2)C1 [Navitoclax] (10000 nM) | 86.7 | 16.1 | 92.5 | 55.6 | 72.4 | 60.3 | 23.5 | 73.2 | 72.4 | 78 | 90.7 | 56.9 | 37.4 | – | – | – | –
– | Cc1cn(-c2cc(NC(=O)c3ccc(C)c(Nc4nccc(-c5cccnc5)n4)c3)cc(C(F)(F)F)c2)cn1 [Nilotinib] (10000 nM) | 61.2 | 92.9 | 99.4 | 97.2 | 98 | 102 | 94.7 | 99.4 | 102 | 101 | 106 | 96.8 | 103 | – | – | – | –
960 | O=C(CCCCCCC(=O)Nc1ccccc1)NO [Vorinostat] | – | – | – | – | – | – | – | – | – | – | – | – | – | 3890 | 3250 | – | 9000
– | O=C(CCCCCCC(=O)Nc1ccccc1)NO [Vorinostat] (10000 nM) | 47.7 | 15 | 43.3 | 31.5 | 29.6 | 3.2 | 17.3 | 14.1 | 27.8 | 22 | 52.2 | 43.6 | 46.1 | – | – | – | –
